Assay results published in the supplement of paper PMC8612539.

Tested on: Mannheimia haemolytica
Test: minimum inhibitory concentration (MIC)
Description: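 Broth microdilution MIC (Sensititre BOPO7F bovine plate, CLSI methods) of 19 antimicrobials against field isolates of P. multocida, M. haemolytica, H. somni (deep nasopharyngeal swabs) and E. coli, Enterococcus spp. (rectal swabs) from weaned dairy heifers. Incubation 16-24 h at 35 C. MIC is the lowest concentration preventing visible growth. Values with <= or > lie at the tested range limits. Trimethoprim-sulfamethoxazole is given as the trimethoprim component of a 1:19 mixture.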

COc1cc(Cc2cnc(N)nc2N)cc(OC)c1OC.Cc1cc(NS(=O)(=O)c2ccc(N)cc2)no1 [trimethoprim-sulfamethoxazole]
Conditions	minimum inhibitory concentration [µg/mL]
isolate (source animal id): 3	≤ 2
isolate (source animal id): 8	≤ 2
isolate (source animal id): 13	≤ 2
isolate (source animal id): 18	≤ 2
isolate (source animal id): 21	≤ 2
isolate (source animal id): 25	≤ 2
isolate (source animal id): 27	≤ 2
isolate (source animal id): 28	≤ 2
isolate (source animal id): 30	≤ 2
isolate (source animal id): 31	≤ 2
isolate (source animal id): 32	≤ 2
isolate (source animal id): 34	≤ 2
isolate (source animal id): 36	≤ 2
isolate (source animal id): 37	≤ 2
isolate (source animal id): 40	≤ 2
isolate (source animal id): 41	≤ 2
isolate (source animal id): 43	≤ 2
isolate (source animal id): 46	≤ 2
isolate (source animal id): 49	≤ 2
isolate (source animal id): 50	≤ 2
isolate (source animal id): 51	≤ 2
isolate (source animal id): 52	≤ 2
isolate (source animal id): 53	≤ 2
isolate (source animal id): 55	≤ 2
isolate (source animal id): 56	≤ 2
isolate (source animal id): 57	≤ 2
isolate (source animal id): 60	> 2
isolate (source animal id): 61	≤ 2
isolate (source animal id): 64	≤ 2
isolate (source animal id): 65	≤ 2
isolate (source animal id): 66	> 2
isolate (source animal id): 67	≤ 2
isolate (source animal id): 68	≤ 2
isolate (source animal id): 70	≤ 2
isolate (source animal id): 72	≤ 2
isolate (source animal id): 74	≤ 2
isolate (source animal id): 76	≤ 2
isolate (source animal id): 80	≤ 2
isolate (source animal id): 82	≤ 2
isolate (source animal id): 83	≤ 2
isolate (source animal id): 84	≤ 2
isolate (source animal id): 85	≤ 2
isolate (source animal id): 86	≤ 2
isolate (source animal id): 87	> 2
isolate (source animal id): 100	> 2
isolate (source animal id): 103	≤ 2
isolate (source animal id): 107	≤ 2
isolate (source animal id): 108	≤ 2
isolate (source animal id): 112	≤ 2
isolate (source animal id): 113	≤ 2
isolate (source animal id): 121	≤ 2
isolate (source animal id): 122	≤ 2
isolate (source animal id): 123	≤ 2
isolate (source animal id): 126	≤ 2
isolate (source animal id): 133	≤ 2
isolate (source animal id): 135	≤ 2
isolate (source animal id): 138	≤ 2
isolate (source animal id): 141	≤ 2
isolate (source animal id): 142	≤ 2
isolate (source animal id): 145	≤ 2
isolate (source animal id): 149	≤ 2
isolate (source animal id): 151	≤ 2
isolate (source animal id): 152	≤ 2
isolate (source animal id): 154	≤ 2
isolate (source animal id): 159	≤ 2
isolate (source animal id): 162	≤ 2
isolate (source animal id): 170	≤ 2
isolate (source animal id): 171	≤ 2
isolate (source animal id): 172	≤ 2
isolate (source animal id): 173	≤ 2
isolate (source animal id): 179	≤ 2
isolate (source animal id): 180	≤ 2
isolate (source animal id): 183	≤ 2
isolate (source animal id): 186	≤ 2
isolate (source animal id): 187	≤ 2
isolate (source animal id): 188	≤ 2
isolate (source animal id): 190	≤ 2
isolate (source animal id): 191	≤ 2
isolate (source animal id): 192	≤ 2
isolate (source animal id): 201	≤ 2
isolate (source animal id): 202	≤ 2
isolate (source animal id): 209	≤ 2
isolate (source animal id): 211	≤ 2
isolate (source animal id): 220	≤ 2
isolate (source animal id): 221	≤ 2
isolate (source animal id): 223	≤ 2
isolate (source animal id): 233	≤ 2
isolate (source animal id): 237	≤ 2
isolate (source animal id): 241	≤ 2
isolate (source animal id): 252	≤ 2
isolate (source animal id): 253	≤ 2
isolate (source animal id): 259	≤ 2
isolate (source animal id): 260	≤ 2
isolate (source animal id): 262	≤ 2
isolate (source animal id): 282	≤ 2
isolate (source animal id): 287	≤ 2
isolate (source animal id): 288	≤ 2
isolate (source animal id): 291	≤ 2
isolate (source animal id): 293	≤ 2
isolate (source animal id): 298	≤ 2
isolate (source animal id): 299	≤ 2
isolate (source animal id): 300	≤ 2
isolate (source animal id): 302	≤ 2
isolate (source animal id): 304	≤ 2
isolate (source animal id): 306	≤ 2
isolate (source animal id): 308	≤ 2
isolate (source animal id): 309	≤ 2
isolate (source animal id): 313	≤ 2
isolate (source animal id): 318	≤ 2
isolate (source animal id): 320	≤ 2
isolate (source animal id): 321	≤ 2
isolate (source animal id): 323	≤ 2
isolate (source animal id): 324	≤ 2
isolate (source animal id): 326	≤ 2
isolate (source animal id): 328	≤ 2
isolate (source animal id): 329	≤ 2
isolate (source animal id): 333	≤ 2
isolate (source animal id): 335	≤ 2
isolate (source animal id): 338	≤ 2
